Results reported in ChEMBL document CHEMBL3885881, “DrugMatrix”.

Organism: Rattus norvegicus
Format: toxicity, organism-based, Sprague-Dawley
Settings: in vivo, po, 24 h, route oral GAVAGE, time 1 day, vehicle 100 % SALINE; for ABSOLUTE BASOPHIL / ABSOLUTE EOSINOPHIL / ABSOLUTE LYMPHOCYTE / ABSOLUTE MONOCYTE / BASOPHIL / EOSINOPHIL / ERYTHROCYTE COUNT / HEMATOCRIT / HEMOGLOBIN / LEUKOCYTE COUNT / LYMPHOCYTE / MEAN CORPUSCULAR HEMOGLOBIN / MEAN CORPUSCULAR HEMOGLOBIN CONCENTRATION / MEAN CORPUSCULAR VOLUME / MONOCYTE / NEUTROPHIL / PLATELET COUNT: tissue Blood; for ALANINE AMINOTRANSFERASE / ALBUMIN / ALKALINE PHOSPHATASE / ASPARTATE AMINOTRANSFERASE / BLOOD UREA NITROGEN / CARBON DIOXIDE / CHLORIDE / CHOLESTEROL / CREATINE PHOSPHOKINASE / CREATININE / GLUCOSE / LACTATE DEHYDROGENASE / LIPASE / PHOSPHORUS / POTASSIUM / SODIUM / TOTAL BILIRUBIN / TOTAL PROTEIN / URIC ACID: tissue Plasma
[1] = 0 mg/kg, vehicle control, dose level Control
[2] = […], dose 7.5 mg/Kg, dose level High

Description: DrugMatrix - Regimen: Single

Nc1ncnc2c1ncn2[C@@H]1O[C@H](CO)[C@@H](O)[C@H]1F [2'-BETA-FLUORO-2',3'-DEOXYADENOSINE]
ABSOLUTE BASOPHIL [1]: 73.3 cells/µL | ABSOLUTE EOSINOPHIL [1]: 86.7 cells/µL | ABSOLUTE LYMPHOCYTE [1]: 8400 cells/µL | ABSOLUTE MONOCYTE [1]: 350 cells/µL | BASOPHIL [1]: 0.63% | EOSINOPHIL [1]: 0.73% | ERYTHROCYTE COUNT [1]: 6.55 x10E6/uL | HEMATOCRIT [1]: 42.83% | HEMOGLOBIN [1]: 13.6 G/DL | LEUKOCYTE COUNT [1]: 11.33 x10E3/uL | LYMPHOCYTE [1]: 74.77% | MEAN CORPUSCULAR HEMOGLOBIN [1]: 20.77 pg | MEAN CORPUSCULAR HEMOGLOBIN CONCENTRATION [1]: 31.7 G/DL | MEAN CORPUSCULAR VOLUME [1]: 65.53 fL | MONOCYTE [1]: 3% | NEUTROPHIL [1]: 20.2% | PLATELET COUNT [1]: 1394.33 x10E3/uL | ALANINE AMINOTRANSFERASE [1]: 34 u/L | ALBUMIN [1]: 4.03 G/DL | ALKALINE PHOSPHATASE [1]: 345.33 u/L | ASPARTATE AMINOTRANSFERASE [1]: 69.67 u/L | BLOOD UREA NITROGEN [1]: 14.33 mg/dL | CARBON DIOXIDE [1]: 46 mmol/L | CHLORIDE [1]: 102.67 MEQ/L | CHOLESTEROL [1]: 85 mg/dL | CREATINE PHOSPHOKINASE [1]: 292 u/L | CREATININE [1]: 0.2 mg/dL | GLUCOSE [1]: 168 mg/dL | LACTATE DEHYDROGENASE [1]: 114.33 u/L | LIPASE [1]: 13 u/L | PHOSPHORUS [1]: 11.2 mg/dL | POTASSIUM [1]: 7.07 MEQ/L | SODIUM [1]: 144.67 MEQ/L | TOTAL BILIRUBIN [1]: 0.27 mg/dL | TOTAL PROTEIN [1]: 6.57 G/DL | URIC ACID [1]: 0.73 mg/dL | ABSOLUTE BASOPHIL [2]: 36.7 cells/µL | ABSOLUTE EOSINOPHIL [2]: 40 cells/µL | ABSOLUTE LYMPHOCYTE [2]: 7660 cells/µL | ABSOLUTE MONOCYTE [2]: 240 cells/µL | BASOPHIL [2]: 0.37% | EOSINOPHIL [2]: 0.43% | ERYTHROCYTE COUNT [2]: 7.06 x10E6/uL | HEMATOCRIT [2]: 46.1% | HEMOGLOBIN [2]: 14.4 G/DL | LEUKOCYTE COUNT [2]: 9.56 x10E3/uL | LYMPHOCYTE [2]: 79.8% | MEAN CORPUSCULAR HEMOGLOBIN [2]: 20.4 pg | MEAN CORPUSCULAR HEMOGLOBIN CONCENTRATION [2]: 31.2 G/DL | MEAN CORPUSCULAR VOLUME [2]: 65.37 fL | MONOCYTE [2]: 2.57% | NEUTROPHIL [2]: 16.23% | PLATELET COUNT [2]: 1451.67 x10E3/uL | ALANINE AMINOTRANSFERASE [2]: 40.67 u/L | ALBUMIN [2]: 4.03 G/DL | ALKALINE PHOSPHATASE [2]: 348 u/L | ASPARTATE AMINOTRANSFERASE [2]: 71.67 u/L | BLOOD UREA NITROGEN [2]: 15 mg/dL | CARBON DIOXIDE [2]: 42.67 mmol/L | CHLORIDE [2]: 103.33 MEQ/L | CHOLESTEROL [2]: 98.67 mg/dL | CREATINE PHOSPHOKINASE [2]: 439.67 u/L | CREATININE [2]: 0.3 mg/dL | GLUCOSE [2]: 185.67 mg/dL | LACTATE DEHYDROGENASE [2]: 90 u/L | LIPASE [2]: 12 u/L | PHOSPHORUS [2]: 11.67 mg/dL | POTASSIUM [2]: 6.3 MEQ/L | SODIUM [2]: 146 MEQ/L | TOTAL BILIRUBIN [2]: 0.27 mg/dL | TOTAL PROTEIN [2]: 6.7 G/DL | URIC ACID [2]: 0.97 mg/dL
